Assay [1] deals with cervical cancer cell lines. Put plainly: Expression level of intracellular p53 over time in cervical cancer cell lines. The format is cell-based.
The subject of assay [2] is Hela cells. Description: Western blot of TP53, RB, E6, E7 at time points (Example 1-4). The format is cell-based, human. Conditions: Hela cells transformed with HPV E6/E7 siRNA then treated with cisplatin; FIG. 1D, 1E. An excerpt:
(§1) Cell lysates were then obtained and subjected to western blotting.
(§2) In western blotting, antibodies of Santa Cruz Biotechnology ([…], Calif.) were used for TP53 [DO7], HPV 18-E6 [G7], HPV 16-E6 [C1P5], HPV 18-E7 [F7], HPV 16-E7 [ED17], E2F-1 [KH195], Cyclin-E [M20], β-Actin [C4] and antibody of BD Pharmingen was used for RB [554164], antibody of cell signaling was used for phospho-TP53 (ser-15) [9284].

Assay [3] concerns CaSki cells. The assay is described as above. Format: cell-based, human. The note with it: CaSki cells transformed with HPV E6/E7 siRNA then treated with cisplatin; FIG. 1D, 1E.
Text: as §1, §2

For assay [4], the system named is CaSki cells. Description: Western blot of TP53 and HPV E6/E7 after HPV E6/E7 siRNA and cisplatin (Example 1-1). The note with it: CaSki cells transformed with HPV E6/E7 siRNA, 10 μM cisplatin for 24 hours; FIG. 1A. The format is cell-based, human.
Assay [5] relates to Hela cells. Described as above. Conditions: Hela cells transformed with HPV E6/E7 siRNA, 10 μM cisplatin for 24 hours; FIG. 1A. The format is cell-based, human. How it is done: Cervical cancer cell and HeLa cervical cancer cell lines (HeLa; ATCC CCL-2) infected with HPV type 18 virus and SiHa cervical cancer cell lines (SiHa; ATCC HTB-35) infected with HPV type 16 virus were plated on a 6-well plate with 5×10^4 or 1×10^5 cells and cultured in RPMI 1640 or DMEM medium for 24 hours at 37° C. and 5% carbon dioxide, respectively. siRNA intracellular transfection was performed with DharmaFect (Dharmacon, Lafayette, Colo., USA) according to manufacturer's instructions.
HeLa cervical carcinoma cells infected with HPV type 18 virus were transformed by pooling with each of siRNAs of 426 and 450 sequences, or respectively. The HPV type 16 virus-infected siHa cell line was transformed by pooling siRNAs of 366, 448 and 497 sequences, or respectively.
In the Western blot, whole-cell lysate was extracted with RIPA buffer (10 mM Tris ([…]), 0.15 M NaCl, 5 mM EDTA, 1% Triton X-100, 0.5% deoxycholic acid sodium salt and 0.1% SDS). After centrifugation, the protein concentration of the supernatant was measured using a BCA protein assay kit (Thermo Fisher Scientific Inc). Protein samples were placed in sample buffer and boiled for 5 minutes for complete denaturation. The samples were then applied to 6%, 10%, or 15% polyacrylamide gels and transferred to a 0.4 μm PVDF membrane (Milipore, Bilerica). […] Finally, the expression level of the protein was detected using ECL solution. […]

Assay [6] concerns Hela cells. Put plainly: TP53 and E2F luciferase reporter assay (Example 1-3). The format is cell-based, human. The note with it: Hela cells treated with cisplatin and HPV E6/E7 siRNA; FIG. 1C. Here is the method:
(§3) The above luciferase reporter vector system was purchased from Clontech pathway profiling system (Mountain View, Calif., USA). Luciferase assay was performed using Dual-Luciferase Reporter Assay System (Promega) after 24 hours of transfection, and luminescence activity was measured using a GENios Pro microplate reader (Tecan Trading AG, Mannedorf, Switzerland).

The test system of assay [7] is CaSki cells. The assay is described as above. The format is cell-based, human. Conditions: CaSki cells treated with cisplatin and HPV E6/E7 siRNA; FIG. 1C. Here is the method: as §3
The test system of assay [8] is human cervical cancer cells. Description: Tumor growth in animal model transplanted with human cervical cancer cells. The format is in vivo. The note with it: low concentration of cisplatin.
The test system of assay [9] is Hela cells. Description: WST cell viability analysis (Example 1-2). The note with it: Hela cells transformed with HPV E6/E7 siRNA, 10 μM cisplatin 24 hours, vs group not treated with cisplatin; FIG. 1B. Format: cell-based, human. How it is done:
(§4) WST analysis was performed to confirm cell viability.
(§5) Cell counts were determined by water soluble tetrazolium salts (WST) (EZ-Cytox kit; Daeil Lab Service, Seoul, Korea). EZ-Cytox solution (50 μl) added to each well of a 12-well plate and incubated for 2 to 3 hours. Live cells were measured (485 nm) using a GENios Pro microplate reader (Tecan Trading AG, Mannedorf, Switzerland) in a 96-well plate.

Assay [10] deals with CaSki cells. Put plainly: WST cell viability analysis (Example 1-2). The format is cell-based, human. The note with it: CaSki cells transformed with HPV E6/E7 siRNA, 10 μM cisplatin 24 hours, vs group not treated with cisplatin; FIG. 1B. How it is done:
as §4, §5

SMILES strings stand for the structures.

Regarding `N.N.[Cl][Pt][Cl]` [cisplatin, cis-diamminedichloroplatinum [II]], the “expression level of intracellular p53” value in assay [1] is “in the form of a pulse and repeatedly increased and decreased”. In the assay on Hela cells [2], the “expression level of TP53” value is reported as “increased”; the “expression level of pRB” value is recorded as “increased”; the “expression levels of 18-E6 and 18-E7” value was “decreased”. Further, in the assay with CaSki cells [3], the “expression level of TP53” value is on record as “increased”; the “expression level of pRB” value is given as “increased”; the “expression levels of 16-E6 and 16-E7” value is “decreased”. In the assay on CaSki cells [4], the “amount of HPV E6/E7 protein expression” value is “not observed” and the “amount of TP53 expression” value is “increased”. Moreover, in the assay with Hela cells [5], the “amount of HPV E6/E7 protein expression” value was “not observed” and the “amount of TP53 expression” value was “increased”. Moreover, in the assay on Hela cells [6], the “activity of E2F (luciferase reporter)” value is reported as “further decrease” and the “activity of TP53 (luciferase reporter)” value is “increase”. Besides, in the assay with CaSki cells [7], the “activity of E2F (luciferase reporter)” value is reported as “further decrease” and the “activity of TP53 (luciferase reporter)” value was “increase”. In addition, the “tumor growth inhibitory effect” value in assay [8] is reported as “no tumor growth inhibitory effect”. For the same compound, the cell viability result in the assay with Hela cells [9] is “decreased”. Besides, the cell viability result with CaSki cells [10] was “decreased”.

Values taken from patent publication US20200009185A1, “METHOD FOR MAINTAINING INCREASED […] p53 LEVEL, INDUCED BY […]-BASED […] DRUG, AND APPLICATION THEREOF” (priority 2015, published 2020).
